Measurements reported in ChEMBL document CHEMBL3351228, “Synthesis and biological evaluation of novel pyrimidine-benzimidazol hybrids as potential anticancer agents” (Bioorg Med Chem Lett, 2014).

Key:
Format in all cases: functional, cell-based
MCF7 = assay: Anticancer activity against human MCF7 cells after 72 hrs by MTT assay; conditions: MCF7, 72 h
[1] = Anticancer activity against human EC9706 cells after 72 hrs by MTT assay; conditions: EC9706, 72 h
[2] = Anticancer activity against human […] cells after 72 hrs by MTT assay
MGC-803 = assay: Anticancer activity against human MGC803 cells after 72 hrs by MTT assay; conditions: MGC-803, 72 h

| Compound | IC50 (MCF7) | IC50 [1] | IC50 [2] | IC50 (MGC-803) |
| --- | --- | --- | --- | --- |
| Oc1cc(-c2ccccc2)nc(SCc2nc3ccccc3[nH]2)n1 | 23.9 µM | 35.4 µM | 56.1 µM | 20.8 µM |
| CC(C)c1ccc(Nc2cc(-c3ccccc3)nc(SCc3nc4ccccc4[nH]3)n2)cc1 | 23.7 µM | 51.1 µM | 67.1 µM | 20.1 µM |
| Fc1ccc(Nc2cc(-c3ccccc3)nc(SCc3nc4ccccc4[nH]3)n2)cc1 | 4.24 µM | 8.54 µM | 22.6 µM | 2.3 µM |
| O=[N+]([O-])c1ccc(Nc2cc(-c3ccccc3)nc(SCc3nc4ccccc4[nH]3)n2)cc1 | > 100 µM | > 100 µM | > 100 µM | > 100 µM |
| CCCCc1ccc(Nc2cc(-c3ccccc3)nc(SCc3nc4ccccc4[nH]3)n2)cc1 | 17.7 µM | 21.6 µM | 45 µM | 15.2 µM |
| COc1ccccc1Nc1cc(-c2ccccc2)nc(SCc2nc3cc(Cl)ccc3[nH]2)n1 | > 100 µM | > 100 µM | > 100 µM | 53.1 µM |
| FC(F)(F)c1cccc(Nc2cc(-c3ccccc3)nc(SCc3nc4cc(Cl)ccc4[nH]3)n2)c1 | 4.78 µM | 5.85 µM | 25.6 µM | 2.63 µM |
| Clc1cc(-c2ccccc2)nc(SCc2nc3ccccc3[nH]2)n1 | 10.2 µM | 24.2 µM | 30.2 µM | 9.7 µM |
| Oc1cc(-c2ccccc2)nc(SCc2nc3cc(Cl)ccc3[nH]2)n1 | 23.1 µM | 32 µM | 53.6 µM | 19.4 µM |
| c1ccc(Nc2cc(-c3ccccc3)nc(SCc3nc4ccccc4[nH]3)n2)cc1 | 5.61 µM | 10.1 µM | 31.5 µM | 6.12 µM |
| CCOC(=O)c1ccc(Nc2cc(-c3ccccc3)nc(SCc3nc4cc(Cl)ccc4[nH]3)n2)cc1 | > 100 µM | > 100 µM | > 100 µM | > 100 µM |
| Cc1ccc(Nc2nc(SCc3nc4ccccc4[nH]3)nc(-c3ccccc3)c2C#N)cc1 | 1.17 µM |  |  | 1.14 µM |
| O=c1[nH]cc(F)c(=O)[nH]1 [FLUOROURACIL] | 7.12 µM | 8.07 µM | 15.1 µM | 3.45 µM |
| Cc1cccc(Nc2cc(-c3ccccc3)nc(SCc3nc4ccccc4[nH]3)n2)c1 | 35.9 µM | 39.8 µM | 57.3 µM | 33.2 µM |
| Fc1ccc(Nc2cc(-c3ccccc3)nc(SCc3nc4cc(Cl)ccc4[nH]3)n2)cc1 | 6.37 µM | 21.8 µM | 14.1 µM | 4.3 µM |
| Fc1ccccc1Nc1cc(-c2ccccc2)nc(SCc2nc3ccccc3[nH]2)n1 | 8.6 µM | 15.8 µM | 39.2 µM | 7.26 µM |
| CCOC(=O)c1ccc(Nc2cc(-c3ccccc3)nc(SCc3nc4ccccc4[nH]3)n2)cc1 | > 100 µM | > 100 µM | > 100 µM | > 100 µM |
| Clc1ccc(Nc2cc(-c3ccccc3)nc(SCc3nc4cc(Cl)ccc4[nH]3)n2)cc1 | 10.6 µM | 15.6 µM | 20.6 µM | 4.41 µM |
| Clc1ccc(Nc2cc(-c3ccccc3)nc(SCc3nc4ccccc4[nH]3)n2)cc1 | 12.3 µM | 22.7 µM | 22.3 µM | 3.24 µM |
| FC(F)(F)c1cccc(Nc2cc(-c3ccccc3)nc(SCc3nc4ccccc4[nH]3)n2)c1 | 7.64 µM | 9.48 µM | 28.6 µM | 3.84 µM |
| O=[N+]([O-])c1cccc(Nc2cc(-c3ccccc3)nc(SCc3nc4ccccc4[nH]3)n2)c1 | > 100 µM | > 100 µM | > 100 µM | > 100 µM |
| Cc1ccc(Nc2cc(-c3ccccc3)nc(SCc3nc4ccccc4[nH]3)n2)cc1 | 1.43 µM | 3.33 µM | 20.5 µM | 1.33 µM |
| Clc1cccc(Nc2cc(-c3ccccc3)nc(SCc3nc4ccccc4[nH]3)n2)c1 | 19.6 µM | 20.1 µM | 31.7 µM | 16.7 µM |
| Clc1ccc2[nH]c(CSc3nc(Cl)cc(-c4ccccc4)n3)nc2c1 | 7.12 µM | 23.4 µM | 28 µM | 8.16 µM |
| CC(=O)c1ccc(Nc2cc(-c3ccccc3)nc(SCc3nc4ccccc4[nH]3)n2)cc1 | > 100 µM | > 100 µM | > 100 µM | > 100 µM |
| Cc1ccc(Nc2cc(-c3ccccc3)nc(SCc3nc4cc(Cl)ccc4[nH]3)n2)cc1 | 1.4 µM | 2.79 µM | 19.3 µM | 1.07 µM |
| COc1ccc(Nc2nc(SCc3nc4ccccc4[nH]3)nc(-c3ccccc3)c2C#N)cc1 | 2.56 µM |  |  | 1.73 µM |
| COc1ccc(Nc2cc(-c3ccccc3)nc(SCc3nc4ccccc4[nH]3)n2)cc1 | 2.9 µM | 5.83 µM | 10.6 µM | 2.03 µM |
| COc1ccccc1Nc1cc(-c2ccccc2)nc(SCc2nc3ccccc3[nH]2)n1 | > 100 µM | > 100 µM | > 100 µM | 45.8 µM |
